{
  "source": "patent US20240116856A1",
  "about": "(Young BioPharma, LLC, priority 2020, published 2024)",
  "key": {"[1]": {"assay": "Operant Pain Tolerance Assay", "assay_type": "in vivo", "settings": "intraplantar", "experimental": "Model 3—The ability of YB-16 to increase pain tolerance was tested using a newly published Operant Pain Tolerance Assay (eNeuro 2020, 7, ENEURO.0210-19.2020). In the assay, mice were trained to seek a sucrose reward that was on a hot 42° C. plate (versus no reward on a neutral 30° C. plate). It was noticed that intraplantar YB-16 treated mice with paw inflammatory injury [induced by Complete Freund's adjuvant (CFA) 24 hrs prior to treatment] trended to spend 145% more time on the hot side of the assay but not necessarily additional time near the sucrose bottle compared to vehicle treated mice (FIG. 10B)."}, "MDA-MB-231": {"tested_on": "MDA-MB-231", "assay": "Human cancer cell growth inhibition assay (ATP assay), MDA-MB-231", "assay_type": "cell-based", "settings": "Homo sapiens, MDA-MB-231, 96 h; 4 days; Means±SEM from three independent experiments; read-out: MDA-MB-231, IC50"}, "MDA-MB-231 cell invasion": {"tested_on": "MDA-MB-231 cell invasion", "assay": "Cancer cell invasion assay, MDA-MB-231", "assay_type": "cell-based, human", "settings": "24 h", "method_in_brief": "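Transwell inserts were coated with membrane matrix gel (0.5-0.6 mg/mL) and loaded with 1×10^5 human cancer cells in RPMI 1640, with 10% FBS medium below as attractant. Compound or DMSO went into both compartments for 24 h at 37 °C. Invaded cells were fixed, crystal-violet stained, counted in 5 random fields and expressed as % of DMSO control.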"}, "NCI-H460 cell invasion": {"tested_on": "NCI-H460 cell invasion", "assay": "Cancer cell invasion assay, NCI-H460", "assay_type": "cell-based, human", "settings": "24 h", "experimental": "(§1) A cancer cell invasion assay was developed based on literature protocols (Methods 2005, 37, 208; EMBO J 2002, 21, 6289; Cellular Signalling 2012, 24, 1276.). Membrane matrix gel (Cat #A1413201, ThermoFisher) was diluted in ice-cold, serum-free RPMI 1640 Medium (Cat #31800022, ThermoFisher) at a concentration of 0.5-0.6 mg/mL. Then it was added to the upper compartment (100 μL per cup) of millicell inserts (Cat #PI8P01250, ThermoFisher) placed in a 24-well plate (Part no. 229123, Celltreat). The plate was incubated at 37° C. for 2 h to allow the liquid gel to solidify. RPMI 1640 Medium supplemented with 10% FBS (300 μL) was added to the well of the plate (lower compartment) as attractant, then DMSO or compounds were added. Human cancer cells (1×10^5 cells in 200 μL of RPMI 1640 Medium) were added to the upper compartment of the insert, then DMSO or compounds were added. After the plate was incubated at 37° C. for 24 h, the cells were fixed on the lower side of the insert membrane with 4% formaldehyde and stained with 1% crystal violet (Part no. IS12146, Innovating Science). The invaded cells on the lower side of the filter were counted under an inverted microscope equipped with either a 4× or a 10× objective (FIG. 11). The cell numbers from 5 random views were averaged and plotted as percentage against the DMSO control (FIG. 12A)."}, "OVCAR-8 cell invasion": {"tested_on": "OVCAR-8 cell invasion", "assay": "Cancer cell invasion assay, OVCAR-8", "assay_type": "cell-based, human", "settings": "24 h", "experimental": "as §1"}, "[2]": {"tested_on": "Src protein activation in OVCAR-8 cells", "assay": "Cancer cell immunocytochemistry assay, Phospho-Src (Y416), OVCAR-8", "assay_type": "cell-based, human", "settings": "YB-1 15 μM, capsaicin 50 μM, 1-6 h", "experimental": "Human cancer cells (15,000 cells/well) in 96 well half area microplate (Cat #3882, Corning) were incubated overnight at 37° C., then compounds or DMSO control were added to the cell culture and incubated at 37° C. for 1-6 h. The cells were sequentially fixed with 4% formalin, permeabilized with 0.5% Triton X-100, blocked with 5% BSA in PBS, incubated with Human Phospho-Src (Y416) Antibody (Cat #MAB2685, R&D Systems) at rt for 2 h, incubated with the secondary antibody Goat Ant-Rabbit IgG H&L (Alexa Fluor 488) (Cat #ab150077, abeam) for 45 min, and incubated with DAPI (Cat #D9542, Sigma-Aldrich) for 5 min. Finally, the cells were washed and covered with PBS. The cell images were visualized on an inverted fluorescence microscope (Leica DMIL Fluorescent Inverted Microscope with Digital Camera, Leica Microsystems). Pictures were taken [FIGS. 14A-C. Green: Human Phospho-Src (Y416), the activated form of the Src protein; Blue: DAPI (stain nucleus of cell)]. The fluorescence intensity values from 5 random cells were averaged, subtracted by the background value (area between cells) and the blank value [the blank control without the Human Phospho-Src (Y416) Antibody], then plotted as percentage against the DMSO control to indicate the effects of compound treatment on the cellular Src kinase phosphorylation levels in the cancer cells (FIGS. 15A-D)."}},
  "data": [
    {"smiles": "COc1cc(CNC(=O)CCCC/C=C/C(C)C)ccc1O", "note": "[Capsaicin, trans-8-methyl-N-vanillyl-6-nonenamide, reference compound]", "values": [
      {"measurement": "sedation in operant pain tolerance assay", "setting": "[1]", "value": "inflammatory injury with sedation"},
      {"measurement": "sensitivity to hot plate after inflammatory injury", "setting": "[1]; paw inflammatory injury (CFA)", "value": "Weak trend for reduced sensitivity to"},
      {"measurement": "IC50", "setting": "MDA-MB-231", "value": "387 ± 120", "unit": "µM"},
      {"measurement": "inhibition of MDA-MB-231 cell invasion", "setting": "MDA-MB-231 cell invasion", "value": "dose-dependently inhibited"},
      {"measurement": "inhibition of NCI-H460 cell invasion", "setting": "NCI-H460 cell invasion", "value": "dose-dependently inhibited"},
      {"measurement": "inhibition of OVCAR-8 cell invasion", "setting": "OVCAR-8 cell invasion", "value": "dose-dependently inhibited"},
      {"measurement": "cellular Src kinase phosphorylation levels", "setting": "[2]", "value": "time-dependently reduced the cellular Src kinase phosphorylation levels"}
    ]}
  ]
}
